Reference: ChEMBL document CHEMBL2396627, “Novel artemisinin derivatives with potential usefulness against liver/colon cancer and viral hepatitis” (Bioorg Med Chem, 2013)
The source made the active and inactive calls. The rule behind the calls is not given here.

Columns and labels:
SK-HEP1 [1] = experiment: Cytotoxicity against human SKHEP1 cells incubated for 1 hr prior to ferrosanol addition measured after 72 hrs; type: functional, cell-based
SK-HEP1 [2] = experiment: Cytotoxicity against human SKHEP1 cells incubated for 1 hr prior to hemin addition measured after 72 hrs; type: functional, cell-based
SK-HEP1 [3] = experiment: Cytotoxicity against human SKHEP1 cells after 72 hrs in presence of hemin; type: functional, cell-based
SK-HEP1 [4] = experiment: Cytotoxicity against human SKHEP1 cells after 72 hrs in presence of ferrosanol; type: functional, cell-based
[5] = Acute toxicity in human LS 174T cells at IC50 after 6 hrs by formazan test; type: cell-based; settings: ls174t
HepG2 [6] = experiment: Acute toxicity in human HepG2 cells at IC50 after 6 hrs by formazan test; type: cell-based; settings: hepg2, 6 h
SK-HEP1 [7] = experiment: Acute toxicity in human SKHEP1 cells at IC50 after 6 hrs by formazan test; type: cell-based; settings: sk-hep1, 6 h
SK-HEP1 [8] = experiment: Cytotoxicity against human SKHEP1 cells after 72 hrs by formazan test; type: functional, cell-based; settings: for IC50: SK-HEP1, 72 h
[9] = (§1) Cytotoxicity against human LS 174T cells after 72 hrs by formazan test; type: functional, cell-based; settings: LS174T
LS174T = experiment: as §1; type: functional, cell-based
HepG2 [10] = experiment: Cytotoxicity against human HepG2 cells after 72 hrs by formazan test; type: functional, cell-based; settings: for IC50: HepG2, 72 h
[11] = Cytotoxicity against human HepG2(2.2.15) cells assessed as reduction in cell viability at 1 uM measured on day 21 by natural Red test; type: cell-based; settings: hepg2 2.2.15, 1 µM
[12] = system: Bovine viral diarrhea virus strain Oregon C24V; experiment: Antiviral activity against Bovine viral diarrhea virus Oregon C24V genotype 1 […] assessed as reduction in viral RNA release at 50 uM by RT-PCR analysis; type: functional
[13] = Acute toxicity in bovine EBTr cells infected with BVDV assessed as reduction in cell viability at 50 uM after 72 hrs; type: cell-based, Bos taurus; settings: cattle
[14] = Acute toxicity in bovine EBTr cells at 50 uM after 72 hrs; type: cell-based, Bos taurus; settings: cattle
EBTr [15] = experiment: Antiviral activity against Bovine viral diarrhea virus Oregon C24V genotype 1 […] infected in bovine EBTr cells assesed as inhibition of virus-induced cytopathic effect at 20 to 100 uM after 72 hrs by MTT assay; type: functional, cell-based; settings: Bovine viral diarrhea virus strain Oregon C24V
[16] = Cytotoxicity against bovine EBTr cells up to 100 uM after 72 hrs by MTT assay; type: cell-based, Bos taurus; settings: cattle
EBTr [17] = experiment: Antiviral activity against Bovine viral diarrhea virus Oregon C24V genotype 1 […] infected in bovine EBTr cells assesed as inhibition of virus-induced cytopathic effect at 50 uM after 72 hrs by MTT assay; type: functional, cell-based; settings: Bovine viral diarrhea virus strain Oregon C24V
Hepatitis B virus = experiment: Antiviral activity against Hepatitis B virus infected in human HepG2(2.2.15) cells assessed as reduction in HBV-DNA release at < 0.1 uM measured on day 21; type: functional; design: scale not given: the % may be the effect or the level left
[18] = Cytotoxicity against human HepG2(2.2.15) cells assessed as reduction in cell viability at 0.1 to 1 uM measured on day 21 by natural Red test; type: cell-based; settings: hepg2 2.2.15, 1 µM
[19] = Cytotoxicity against bovine EBTr cells at 20 to 100 uM after 72 hrs by MTT assay; type: cell-based, Bos taurus; settings: cattle
EBTr [20] = experiment: Antiviral activity against Bovine viral diarrhea virus Oregon C24V genotype 1 […] infected in bovine EBTr cells assessed as inhibition of virus-induced cytopathic effect at 50 uM incubated 1 hr prior to ferrosanol addition measured after 72 hrs; type: functional, cell-based; settings: Bovine viral diarrhea virus strain Oregon C24V
EBTr [21] = experiment: Antiviral activity against Bovine viral diarrhea virus Oregon C24V genotype 1 […] infected in bovine EBTr cells assessed as inhibition of virus-induced cytopathic effect at 50 uM incubated 1 hr prior to hemin addition measured after 72 hrs; type: functional, cell-based; settings: Bovine viral diarrhea virus strain Oregon C24V
[22] = Cytotoxicity against human HepG2(2.2.15) cells assessed as reduction in cell viability at 0.1 uM measured on day 21 by natural Red test; type: cell-based; settings: hepg2 2.2.15, 0.1 µM

SMILES	Activity [5]	Activity (HepG2 [6])	Activity (SK-HEP1 [7])	IC50 (SK-HEP1 [8])	IC50 [9]	IC50 (HepG2 [10])	Activity [11]	Activity [12]	Activity [13]	Activity [14]	Activity (EBTr [15])	Activity [16]	Activity (EBTr [17])	Activity [19]	other results
C[C@H]1[C@H](OC(=O)CCC(=O)O)O[C@@H]2O[C@@]3(C)CC[C@H]4[C@H](C)CC[C@@H]1[C@@]24OO3 [ARTESUNATE]	Toxic	Toxic	Toxic	10 µM	10 µM	20 µM	–	–	–	–	–	–	–	–	Activity (SK-HEP1 [1]): Active; Activity (SK-HEP1 [2]): Active; Activity (SK-HEP1 [3]): Active; Activity (SK-HEP1 [4]): Active; Activity (SK-HEP1 [8]): Dose-dependent effect; Activity (LS174T): Dose-dependent effect; Activity (HepG2 [10]): Dose-dependent effect
CCCC(=O)O[C@H]1O[C@@H]2O[C@@]3(C)CC[C@H]4[C@H](C)CC[C@@H]([C@H]1C)[C@@]24OO3	Non-toxic	Non-toxic	Non-toxic	2 µM	130 µM	100 µM	Toxic	inactive	Non-toxic	Non-toxic	Active	Non-toxic	Active	–	–
CCC(C)O[C@H]1O[C@@H]2O[C@@]3(C)CC[C@H]4[C@H](C)CC[C@@H]([C@H]1C)[C@@]24OO3 (some centres not stated)	Non-toxic	Non-toxic	Non-toxic	10 µM	70 µM	50 µM	–	Active	Toxic	Non-toxic	Active	–	inactive	Toxic	Activity (Hepatitis B virus): 50%; Activity [18]: Toxic
CC1=CO[C@@H]2O[C@]3(C)CC[C@H]4[C@H](C)CC[C@@H]1[C@@]24OO3 [ANHYDRODIHYDROARTEMISININ]	–	–	–	30 µM	> 200 µM	200 µM	–	Active	Non-toxic	Non-toxic	Dose-dependent effect	Non-toxic	Active	–	Activity (Hepatitis B virus): 50%; Activity [18]: Toxic; Activity (EBTr [20]): Active; Activity (EBTr [21]): Active
C[C@H]1[C@@H](OC(=O)C(F)(F)C(F)(F)F)O[C@@H]2O[C@@]3(C)CC[C@H]4[C@H](C)CC[C@@H]1[C@@]24OO3	–	–	–	150 µM	> 200 µM	200 µM	–	inactive	Non-toxic	Non-toxic	Dose-dependent effect	Non-toxic	Active	–	Activity [22]: Toxic
C[C@H]1[C@@H](OC(=O)C(C)(C)C)O[C@@H]2O[C@@]3(C)CC[C@H]4[C@H](C)CC[C@@H]1[C@@]24OO3	Non-toxic	Non-toxic	Non-toxic	9 µM	70 µM	40 µM	Toxic	Active	Toxic	Non-toxic	Active	–	inactive	Toxic	–
CC(=O)O[C@H]1O[C@@H]2O[C@@]3(C)CC[C@H]4[C@H](C)CC[C@@H]([C@H]1C)[C@@]24OO3	Non-toxic	Non-toxic	Non-toxic	4 µM	70 µM	60 µM	–	Active	Non-toxic	Non-toxic	Dose-dependent effect	Non-toxic	Active	–	Activity [22]: Toxic
C[C@H]1[C@@H](O)O[C@@H]2O[C@@]3(C)CC[C@H]4[C@H](C)CC[C@@H]1[C@@]24OO3 [ARTENIMOL]	–	–	–	30 µM	120 µM	70 µM	Toxic	Active	Toxic	Non-toxic	Active	–	Active	Toxic	Activity (SK-HEP1 [8]): Dose-dependent effect; Activity (LS174T): Dose-dependent effect; Activity (HepG2 [10]): Dose-dependent effect
CCCC(CCC)C(=O)O[C@H]1O[C@@H]2O[C@@]3(C)CC[C@H]4[C@H](C)CC[C@@H]([C@H]1C)[C@@]24OO3	Non-toxic	Non-toxic	Non-toxic	1 µM	5 µM	3 µM	Toxic	Active	Toxic	Non-toxic	inactive	–	inactive	Toxic	Activity (SK-HEP1 [1]): Active; Activity (SK-HEP1 [2]): Active; Activity (SK-HEP1 [3]): Active; Activity (SK-HEP1 [4]): Active
C[C@H]1[C@@H](OC(=O)N(C)C)O[C@@H]2O[C@@]3(C)CC[C@H]4[C@H](C)CC[C@@H]1[C@@]24OO3	–	–	–	25 µM	100 µM	70 µM	–	inactive	Non-toxic	Non-toxic	Dose-dependent effect	Non-toxic	Active	–	Activity [22]: Toxic
C[C@@H]1CC[C@H]2[C@@H](C)C(=O)O[C@@H]3O[C@@]4(C)CC[C@@H]1[C@]32OO4 [ARTEMISININ]	–	–	–	> 200 µM	> 200 µM	> 200 µM	–	–	–	–	–	–	–	–	–
